In ChEMBL document CHEMBL4270500, “From the hive: Honey, a novel weapon against cancer” (Eur J Med Chem, 2017):

What was measured:
Ehrlich [1] = assay: Antitumour activity against mouse EAC implanted in BALB/c mouse assessed as inhibition of solid tumor growth at 100 mg/kg, ip dosed consecutively from day 1 to 9 relative to untreated control; assay type: functional; details: 24 h, read-out: TGI
Ehrlich [2] = assay: Antitumour activity against mouse EAC implanted in BALB/c mouse assessed as inhibition of tumor growth at 100 mg/kg, ip dosed consecutively from day 1 to 9 relative to untreated control; assay type: functional; details: 24 h, read-out: TGI
HeLa = assay: Cytotoxicity in human HeLa cells assessed as reduction in cell viability incubated for 24 to 72 hrs by MTT assay; assay type: functional, cell-based
KYSE-510 = assay: Cytotoxicity in human KYSE-510 cells assessed as reduction in cell viability incubated for 24 to 72 hrs by MTT assay; assay type: functional, cell-based
[3] = Cytotoxicity in human SP6.5 cells assessed as reduction in cell viability incubated for 48 hrs by MTT assay; assay type: functional, cell-based
[4] = Cytotoxicity in human M17 cells assessed as reduction in cell viability incubated for 48 hrs by MTT assay; assay type: functional, cell-based
Caco-2 = assay: Inhibition of cell proliferation of human Caco2 cells at 1500 umol/L incubated for 1 to 3 days by trypan blue dye based hemocytometry relative to untreated control; assay type: functional

C=CCc1ccc(O)c(OC)c1 [EUGENOL]
inhibition in vivo at 100 mg/kg (Ehrlich [1]): 24.4%
inhibition in vivo at 100 mg/kg (Ehrlich [2]): 28.9%

O=c1cc(-c2ccccc2)oc2cc(O)cc(O)c12 [CHRYSIN]
IC50 (HeLa): 14.2 µM
IC50 (KYSE-510): 63 µM
IC50 [3]: 28.3 µM
IC50 [4]: 35.8 µM

O=C(O)/C=C/c1ccc(O)cc1 [COUMARIC ACID]
inhibition at 1500 µM (Caco-2): 43 to 75%
